Assay results published in publication PMC6050537, “Inhibition of low-density lipoprotein receptor degradation with a cyclic peptide that disrupts the homodimerization of IDOL E3 ubiquitin ligase” (Chemical Science, 2018).
Read-outs that look alike come from different tables or passages of the source. Residues, ends and D or L forms follow the SMILES beside them.

Legend:
[1] = Solubility (qualitative remarks); assay type: physicochemical
ΔIDOL HepG2 cells = details: concentrations up to 100 μM, 72 h
Protocol: (§1) Cell viability was assessed using the CellTiter-Glo 2.0 assay (Promega) according to the manufacturer's instructions. Briefly, cells were plated at a density of 3.3 × 10^4 cells per well in a 96 well plate and incubated overnight (37 °C, 5% CO2). Cells were treated with increasing concentrations of inhibitor and incubated in lipoprotein depleted serum for 72 h (37 °C, 5% CO2). The plate was equilibrated to room temperature for 30 min prior to the addition an equal volume of CellTiter-Glo 2.0 (Promega) reagent to media. The contents were mixed for 2 min on an orbital shaker to induce cell lysis and the plate incubated at room temperature for 10 min prior to the detection of a luminescent signal.
(§2) Supplementary Figure 11. Cellular viability following peptide treatment. The viability of
(§3) (a ) He pG2 a nd (b ) DIDOL He p G2 cells was determined following treatment with increasing
(§4) concentrations of TAT-RINGPe p2 and TAT-ScramPep (100 µM). […]

HepG2 cells = details: concentrations up to 100 μM, 72 h
Protocol: as §1, §2, §3, §4

[2] = molecular target: T1, 6× His-tagged, full-length IDOL (Homo sapiens, UniProt Q8WY64); assay: Surface plasmon resonance (SPR) affinity for IDOL; assay type: binding; details: for Kd: SPR, immobilized full-length His-IDOL, saturation at highest concentrations not observed; for binding to IDOL by SPR: linear counterparts of the cyclic peptides
T1 construct: Full length IDOL (1–445) was cloned with a TEV cleavable N-terminal 6xHis tag; made in house; host or cells: Spodoptera frugiperda Sf21 (baculovirus, pFastbac1)
T1 sequence (Q8WY64 1-445): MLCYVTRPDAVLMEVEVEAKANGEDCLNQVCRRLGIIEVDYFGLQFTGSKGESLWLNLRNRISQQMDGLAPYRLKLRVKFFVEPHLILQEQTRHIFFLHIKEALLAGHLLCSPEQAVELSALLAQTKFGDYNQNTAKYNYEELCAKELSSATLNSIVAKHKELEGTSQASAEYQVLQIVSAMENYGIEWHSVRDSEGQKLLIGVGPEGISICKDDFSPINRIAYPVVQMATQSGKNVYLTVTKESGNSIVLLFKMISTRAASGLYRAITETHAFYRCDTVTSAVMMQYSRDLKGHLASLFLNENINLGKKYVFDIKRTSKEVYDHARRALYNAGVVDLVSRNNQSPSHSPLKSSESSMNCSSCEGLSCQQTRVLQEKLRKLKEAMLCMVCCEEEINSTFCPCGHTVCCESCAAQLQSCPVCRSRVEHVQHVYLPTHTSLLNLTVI
Source text: We initially assessed the affinity of the 6 selected cyclic peptides for IDOL by surface plasmon resonance (SPR). Although saturation at the highest concentrations was not observed, due to hydrophobic effects, Kd values could be determined for five peptides (Table 1). […] The hit rate for our IDOL screen is in line with that for previous SICLOPPS screens.[21],[25] It should be noted that although cyclo-CTIFLL and cyclo-CTLILF contain the same amino acids, changing the order in which these are arranged results in activity loss.
All measurements were performed on a Biacore S200 (GE healthcare) using running buffer 10 mM HEPES, 300 mM NaCl, 1 mM TCEP, 0.05% Tween 20 and 4% DMSO at pH 8.0. In brief, 6× His-tagged, full-length IDOL was immobilized on a NTA-chip (Xantec), to a final level of ∼6000 RU. The chip was pre-loaded with Ni^2+ to facilitate efficient capture of His-tagged protein onto the chip. The activity of the immobilized protein was confirmed using a reference compound.
Supplementary Figure 2. […] Saturation of binding was not observed due to the hydrophobic nature of the peptides
(1 picture or pasted object on this page, not shown here)

FERM domain of IDOL = tested on: T2, FERM domain of IDOL; assay: 1H 15N HSQC NMR binding to FERM domain (negative control)
T2 construct: made in house; host or cells: E. coli BL21
Source text: (§5) The lead candidates, cyclo-CTIFLL and cyclo-CFFLYT, were next analyzed for binding to the RING domain of IDOL by ^1H ^15N HSQC NMR. We also assessed the binding of each peptide to the FERM domain of IDOL as a negative control. […] It should be noted that the 3 residues affected by cyclo-CFFLYT (named RINGPep1) form part of the PPI interface in the crystal structure of the homodimerized RING domains of IDOL (Fig. 1c and ESI Fig. 6 ^†).[15] Furthermore, mutation of V431R coupled with a L433R mutation is known to result in a dimer deficient IDOL.[15]
(§6) ^15N-labeled RING and FERM domains were prepared for NMR experiments by buffer exchange using Amicon Ultra-4 Centrifugal Filter Units with 3 kDa molecular weight cut-off membranes. Buffer conditions for the NMR studies were 50 mM TRIS-d11 pH 7.5, 200 mM NaCl, 3 mM TCEP, 10% (v/v) D2O for the RING domain and 25 mM TRIS-d11, 25 mM NaPi, pH 7.5, 300 mM NaCl, 3 mM TCEP, 10% (v/v) D2O for the FERM domain. The protein concentrations were 80 μM and 70 μM, for the RING and FERM domain respectively. Two-dimensional NMR SOFAST-HMQC titration experiments were carried out on a Bruker 600 MHz spectrometer equipped with a cryoprobe. […]

RING domain of IDOL = tested on: T3, RING domain of IDOL; assay: 1H 15N HSQC NMR binding to RING domain
T3 construct: IDOL RING domain (G356-I445) was expressed as TEV cleavable N-terminal HN6-Lysine-Tag; HN6-Lysine-Tag (TEV-cleavable) (N); made in house; host or cells: E. coli (pET vector)
Source text: as §5, §6

6× His IDOL = molecular target: T4, 6× His IDOL (Homo sapiens, UniProt Q8WY64); assay: Microscale thermophoresis (MST) binding to IDOL; details: full length His-IDOL (44 nM)
T4 construct: Full length IDOL (1–445) was cloned with a TEV cleavable N-terminal 6xHis tag; made in house; host or cells: Spodoptera frugiperda Sf21 (baculovirus, pFastbac1)
T4 sequence (Q8WY64 1-445): T1 sequence (Q8WY64 1-445)
Source text: We sought to improve the affinity of RINGPep1 prior to assessing its effect in cells. We used alanine-scanning to identify residues that were critical to the activity of RINGpep1; we constructed 5 SICLOPPS plasmids where each amino acid (except the set cysteine, which is required for intein splicing) was replaced with alanine. These plasmids were transformed into the IDOL RTHS and assessed for disruption of IDOL homodimerization by drop-spotting. […] We therefore synthesized a handful of RINGPep1 analogues with the second position containing a non-natural phenylalanine analogue. After purification, the affinity of each of these compounds for IDOL was assessed by MST. […] The ability of RINGpep2 to disrupt IDOL homodimerization was assessed in vitro using a competition assay in which increasing concentrations of IDOL were titrated into a 45 nM solution of dye-labelled IDOL. Binding of non-labelled IDOL to dye-labelled IDOL will be observed in the MST signal, allowing the Kd of IDOL homodimerization to be quantified. Using this approach, we measured a Kd of 2.9 ± 0.1 μM for IDOL homodimerization. The experiment was repeated in the presence of RINGpep2 (100 μM), with the expectation that the apparent Kd of IDOL homodimerization would increase in the presence of an inhibitor of IDOL homodimerization.
MST was performed on a Monilith NT.115 system (Nano Temper Technologies, DE). […]

CC(C)C[C@@H]1NC(=O)[C@H](CC2CCCCC2)NC(=O)[C@H](Cc2ccccc2)NC(=O)[C@H](CS)NC(=O)[C@H]([C@@H](C)O)NC(=O)[C@H](Cc2ccc(O)cc2)NC1=O [RINGPep2, cyclo-CF-Cha-LYT] (HELM PEPTIDE1{C.F.[Cha].L.Y.T}$PEPTIDE1,PEPTIDE1,1:R1-6:R2$$$V2.0)
solubility in the assay buffer ([1]; autoubiquitination assay buffer): poor solubility
water solubility ([1]; compared with the 3-(1-naphthyl)-L-alanine analogue): marginally better

CC(C)C[C@@H]1NC(=O)[C@H](CC2CCCCC2)NC(=O)[C@H](Cc2ccccc2)NC(=O)[C@H](CSSC[C@H](N)C(=O)NCC(=O)N[C@@H](CCCNC(=N)N)C(=O)N[C@@H](CCCCN)C(=O)N[C@@H](CCCCN)C(=O)N[C@@H](CCCNC(=N)N)C(=O)N[C@@H](CCCNC(=N)N)C(=O)N[C@@H](CCC(N)=O)C(=O)N[C@@H](CCCNC(=N)N)C(=O)N[C@@H](CCCNC(=N)N)C(=O)N[C@@H](CCCNC(=N)N)C(=O)N2CCC[C@H]2C(=O)N2CCC[C@H]2C(=O)N[C@@H](CCC(N)=O)C(=O)O)NC(=O)[C@H]([C@@H](C)O)NC(=O)[C@H](Cc2ccc(O)cc2)NC1=O [Tat-RINGPep2]
toxicity (ΔIDOL HepG2 cells): no toxicity
toxicity (HepG2 cells): no toxicity

CC(C)C[C@@H]1NC(=O)[C@H](Cc2ccc(O)cc2)NC(=O)[C@H](CSSC[C@H](N)C(=O)NCC(=O)N[C@@H](CCCNC(=N)N)C(=O)N[C@@H](CCCCN)C(=O)N[C@@H](CCCCN)C(=O)N[C@@H](CCCNC(=N)N)C(=O)N[C@@H](CCCNC(=N)N)C(=O)N[C@@H](CCC(N)=O)C(=O)N[C@@H](CCCNC(=N)N)C(=O)N[C@@H](CCCNC(=N)N)C(=O)N[C@@H](CCCNC(=N)N)C(=O)N2CCC[C@H]2C(=O)N2CCC[C@H]2C(=O)N[C@@H](CCC(N)=O)C(=O)O)NC(=O)[C@H](CC2CCCCC2)NC(=O)[C@H]([C@@H](C)O)NC(=O)[C@H](Cc2ccccc2)NC1=O [Tat-ScramPep]
toxicity (ΔIDOL HepG2 cells): no toxicity
toxicity (HepG2 cells): no toxicity

CC[C@H](C)[C@@H]1NC(=O)[C@H](CC(C)C)NC(=O)[C@H](Cc2ccccc2)NC(=O)[C@H](CC(C)C)NC(=O)[C@H](CCCNC(=N)N)NC(=O)[C@H](CS)NC1=O [cyclo-CRLFLI] (HELM PEPTIDE1{C.R.L.F.L.I}$PEPTIDE1,PEPTIDE1,1:R1-6:R2$$$V2.0)
Kd ([2]; read-out: Kd): ~3 mM

CC[C@H](C)[C@@H]1NC(=O)[C@H](C(C)C)NC(=O)[C@H](C(C)C)NC(=O)[C@H](CO)NC(=O)[C@H](CS)NC(=O)[C@H](CC(C)C)NC1=O [cyclo-CSVVIL] (HELM PEPTIDE1{C.S.V.V.I.L}$PEPTIDE1,PEPTIDE1,1:R1-6:R2$$$V2.0)
Kd ([2]; read-out: Kd): ~1 mM

CC[C@H](C)[C@@H]1NC(=O)[C@H]([C@@H](C)O)NC(=O)[C@H](CS)NC(=O)[C@H](CC(C)C)NC(=O)[C@H](CC(C)C)NC(=O)[C@H](Cc2ccccc2)NC1=O [cyclo-CTIFLL] (HELM PEPTIDE1{C.T.I.F.L.L}$PEPTIDE1,PEPTIDE1,1:R1-6:R2$$$V2.0)
chemical shift changes, FERM domain of IDOL (FERM domain of IDOL): did not observe any chemical shift changes
Kd ([2]; read-out: Kd): 0.0209 ± 0.011 mM
chemical shift changes, RING domain of IDOL (RING domain of IDOL): did not observe any chemical shift changes

CC[C@H](C)[C@@H]1NC(=O)[C@H](CC(C)C)NC(=O)[C@H]([C@@H](C)O)NC(=O)[C@H](CS)NC(=O)[C@H](Cc2ccccc2)NC(=O)[C@H](CC(C)C)NC1=O [cyclo-CTLILF] (HELM PEPTIDE1{C.T.L.I.L.F}$PEPTIDE1,PEPTIDE1,1:R1-6:R2$$$V2.0)
Kd ([2]; read-out: Kd): ~10 mM

CC[C@H](C)[C@@H]1NC(=O)[C@H](Cc2ccccc2)NC(=O)[C@H](C(C)C)NC(=O)[C@H]([C@@H](C)O)NC(=O)[C@H](CS)NC(=O)[C@H]([C@@H](C)CC)NC1=O [cyclo-CTVFII] (HELM PEPTIDE1{C.T.V.F.I.I}$PEPTIDE1,PEPTIDE1,1:R1-6:R2$$$V2.0)
Kd [2]: No activity

CFFLYT [linear counterpart of cyclo-CFFLYT]
binding to IDOL by SPR [2]: no binding observed

CTIFLL [linear counterpart of cyclo-CTIFLL]
binding to IDOL by SPR [2]: no binding observed

cyclo-CYLFT[Cha] [ScramPep]
binding to IDOL by MST (6× His IDOL): did not bind
